Reference: patent US20240067603A1, “CUBANYL BIGUANIDE COMPOUNDS” (REGENTS OF THE UNIVERSITY OF MINNESOTA, priority 2020, published 2024)
Like-named read-outs stand apart in the source and are kept apart here.

What was measured:
[1] = Toxicity / tolerance of dosing in mice; format: in vivo
Description: Study 1 was performed by dose escalation of SC HBB from 4 mg/kg qd to 12 mg/kg qd with female CD-1 mice (Envigo) approximately 4-8 weeks of age. N=5 mice per HBB dose group, n=10 naïve control mice.
Study 2 two was performed by dose escalation of SC HBB from 16 mg/kg qd to 24 mg/kg qd with female BALB/c mice (Envigo) approximately 6-8 weeks of age. N=4 mice per HBB dose group, n=3 naïve control mice
Study 3 was performed by dose escalation of SC HBB from 16 mg/kg qd to 24 mg/kg qd with female C57BL/6 mice (CR) approximately 6-8 weeks of age. N=12 for HBB dose group, n=3 naïve control mice.

mm006 = experiment: Oxygen consumption rate (OCR), mm006; format: cell-based, mouse (C57BL/6)
Description: Measurement of oxygen consumption rate (OCR). Cells were maintained in growth medium consisting of 10% FBS at 37° C. with 5% CO2 and seeded at 25,000 cells per well in a 96-well XF96 cell culture microplates (Agilent, Santa Clara, CA). An 96 well XF sensor cartridge was hydrated and equilibrated with 200 ul calibrant in each well at 37° C. without CO2 overnight. Growth media was replaced with 150 μL DMEM based assay media (a non-buffered medium including 2 mM L-glutamine but no sodium bicarbonate (buffering agent), glucose, or sodium pyruvate, Agilent, Santa Clara, CA) the next day and cells were incubated CO2 free for 1 hour before the measurement of OCR by a Seahorse XFe Extracellular Flux Analyzer (Agilent, Santa Clara, CA), which measures uptake and excretion of metabolic end products in real time. After baseline measurements, 20 μl assay medium containing control vehicle or drugs were injected into corresponding wells. OCRs were measured periodically and can be reported in pmoles/minute or normalized against baseline measurements before treatment.

CYP3A4 = CYP3A4 (Homo sapiens, UniProt P08684); experiment: CYP3A4 Supersome mediated EET biosynthesis; format: biochemical; parameters: purchased Corning; host or cells: insect cells (microsomes)
Description: FIG. 1. Effects of HCB on CYP3A4 Supersome™ mediated EET biosynthesis. A 50 ul reaction in a 1.5 ml microcentrifuge tube contains the following components: arachidonic acid (60 μM), NDAPH (2 mM), DMSO or drug, CYP3A4 Supersome™ (1 μM) in potassium phosphate buffer (pH=7.4). The reaction was initiated by the addition of Supersome™ to the reaction mixture. After incubation at 37° C. for 30 minutes, 50 ul of acetonitrile spiked with 13C-EET internal standards was added and vortexed vigorously to terminate the reaction. Microcentrifuge tubes were centrifuged at 16,000×rpm for 10 min to precipitate proteins and other insoluble debris and 80 ul supernatant was transferred into HPLC vials and analyzed by an LC-MS as described previously (1). Results are expressed as mean±S.D. (n=3).
FIG. 2. Effects of DCB and HCB on CYP3A4 Supersome™ mediated EET biosynthesis. A 0.5 ml reaction in a 10 ml glass test tube contains the following components: arachidonic acid ([…]), NDAPH (2 mM), DMSO or drug solution (0.5 μl), CYP3A4 Supersome™ (80 nM) and 450.5 ul potassium phosphate buffer (pH=7.4). The reaction was initiated by the addition of Supersome™ to the rest. After incubation at 37° C. for 30 minutes, 0.5 ml of dichloromethane was added and vortexed vigorously to terminate the reaction. Organic phase and aqueous phase were separated by centrifugation at 3,000×rpm for 10 minutes. Two hundred microliters of the organic phase was withdrawn and evaporated to dryness. The residues were reconstituted with 20 ul methanol containing ^13C-EET internal standards and analyzed by an LC-MS as described previously (1). Results are expressed as mean±S.D. (n=3, * indicates a statistically significant difference from the control).
Recombinant Microsomal CYP-mediated EET Biosynthesis. CYP Supersomes™ (Corning, NY) (1 μM, final concentration) were incubated at 37° C. for 30 min in the presence of AA (120 μM) in 50 μl potassium phosphate buffer, (50 mM, pH 7.4), containing 1 mM EDTA and 1 mM NADPH. Reactions were terminated by addition of 50 μL of acetonitrile spiked with ^13C-EET internal standards followed by vigorous vortexing. After centrifugation at 16,000×rpm for 10 minutes to precipitate proteins and other insoluble debris and 80 μL supernatant was transferred into HPLC vials and analyzed by with an LC-ESI/MRM/MS method.
LC-ESI/MRM/MS Method for EET Measurement. EETs were measured by an LC-ESI/MRM/MS analytical method on a ThermoFisher Vantage triple quadrupole mass spectrometer (ThermoFisher, San Jose, CA) coupled with an UltiMate 3000 HPLC (ThermoFisher, San Jose, CA), using argon as the collision gas. Negative ion monitoring was performed at the following diagnostic product ions: 319 m/z→155 m/z for 8,9-EET; 319 m/z→179 m/z for 11,12-EET; 319 m/z→219 m/z for 14,15-EET; 339 m/z→163 m/z for 8,9-[^13C-20]EET; 339 m/z→233 m/z for 11,12-[^13C-20]EET; and 339 m/z→259 m/z for 14,15-[^13C-20]EET. Base-line resolution of EET regioisomers was achieved on a Phenomenex Luna C18 (2) reverse phase capillary column (250×0.5 mm, 5-μm particles) using the following mobile phase combinations: isocratic 5% B for 5 min, gradient 5-70% B for 5 min, hold at 70% for 30 min and then 95% for 10 min; A: 0.01% acetic acid in water, B: 0.01% acetic acid in acetonitrile; 10 μl/min flow rate. A standard curve was obtained by linear regression of the peak area ratio of authentic EET regioisomers against internal standards. The amount of EETs in samples was calculated according to the standard curve.

Chain of CYP3A4 (P08684 whole entry): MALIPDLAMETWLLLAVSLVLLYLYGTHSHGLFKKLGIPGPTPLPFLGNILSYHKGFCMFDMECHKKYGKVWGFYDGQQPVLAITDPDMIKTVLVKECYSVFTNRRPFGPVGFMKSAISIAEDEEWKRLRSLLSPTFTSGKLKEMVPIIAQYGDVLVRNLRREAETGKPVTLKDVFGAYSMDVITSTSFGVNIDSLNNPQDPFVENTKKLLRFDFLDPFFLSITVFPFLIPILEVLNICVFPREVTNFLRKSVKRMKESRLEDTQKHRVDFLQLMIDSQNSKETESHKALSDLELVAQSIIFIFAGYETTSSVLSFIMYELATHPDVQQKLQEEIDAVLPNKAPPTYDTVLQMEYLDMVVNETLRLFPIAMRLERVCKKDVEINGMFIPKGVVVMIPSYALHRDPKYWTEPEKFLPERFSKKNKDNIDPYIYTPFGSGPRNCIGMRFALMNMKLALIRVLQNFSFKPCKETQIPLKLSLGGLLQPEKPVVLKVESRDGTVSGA

## CCCCCCNC(=N)NC(=N)NCc1ccccc1 [HBB, N1-hexyl-N5-benzyl-biguanide]
[1]; SC 16 to 24 mg/kg qd, female BALB/c mice, FIG. 21
  tolerance of daily SC dosing above 12 mg/kg: not as well tolerated
[1]; daily SC 4 to 12 mg/kg over approximately 2 months, female CD-1 mice, FIG. 20
  tolerance of dose escalation: well tolerated
[1]; female, CD-1 (Study 1), BALB/c (Study 2), C57BL/6 (Study 3), mouse, in vivo, sc, daily
  MTD: 12 mg/kg
[1]; mice
  effect on splenic or lymph node CD4 or CD8 T cells: no observed effect
[1]; mouse, in vivo
  toxicity in mice: acceptable toxicity
[1]; mouse, in vivo, ip, 4 times per week, no more than 2 consecutive days
  MTD: 6 mg/kg
[1]; study day 3 to day 26, female C57BL/6 mice, FIG. 22
  tolerance of daily SC dosing: well tolerated

## CCCCCCNC(=N)NC(=N)NCC12C3C4C5C3C1C5C42 (stereo not shown) [HCB, Hexyl Cubanomethyl Biguanide]
mm006
  OCR Inhibition [HCB] (uM) v vs. control (P < 0.05): 20 µM
CYP3A4; (±)8,9-EET, Example B text, read-out: IC50, CYP3A4 biosynthesis of (±)8,9-EET
  IC50: 28 µM
CYP3A4; (±)11,12-EET, Example B text, read-out: IC50, CYP3A4 biosynthesis of (±)11,12-EET
  IC50: 56 µM
CYP3A4; (±)14,15-EET, Example B text, read-out: IC50, CYP3A4-mediated biosynthesis of (±)14,15-EET
  IC50: 3.8 µM
CYP3A4; (±)-14,15-EET, read-out: Ki, inhibition of biosynthesis of (±)-14,15-EET
  Ki: 4.7 µM
CYP3A4; FIG. 1, (±)8,9-EET, curve fitting, read-out: IC50 for (±)8,9-EET biosynthesis
  IC50: 64.8 ± 6.5 µM
CYP3A4; FIG. 1, (±)11,12-EET, curve fitting, read-out: IC50 for (±)11,12-EET biosynthesis
  IC50: 26.5 ± 1.9 µM
CYP3A4; FIG. 1, (±)14,15-EET, arachidonic acid 60 μM, CYP3A4 Supersome 1 μM, 30 min, curve fitting, read-out: IC50 for (±)14,15-EET biosynthesis
  IC50: 4.7 ± 0.2 µM
CYP3A4; HCB vs HBB, CYP3A4
  fold more potent than HBB for inhibiting biosynthesis of (±)14,15-EET: ~2.5 fold
